Measured values: patent US20190252037A1 (priority 2016, published 2019)

System: FluB polymerase K631A+R634A
Type: binding, human influenza B/Memphis/13/03

Pol II CTD peptide, four heptad repeats Tyr-Ser-Pro-Thr-SerP-Pro-Ser (28 amino acids), FAM-labelled at the N-terminal end for binding assays (Covalab) [28-mer SeP5 peptide]
decrease in the binding affinity compared to wild type: 2.5 fold
